Measured values published in the supplement of paper PMC10307832.

Experiments:
Experiment in all cases: relative viability (nuclei count vs DMSO), 5 days (fraction); higher = more cells survive
NCI-H1355 = system: NCI-H1355
Outline: (§1)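 Dosing by pin tool came one day after lung cancer cell lines were seeded in 1536-well plates, using either one drug or a fixed anchor-drug dose plus five library-drug doses (not always all listed) in √10 steps. After 5 days, nuclei were counted on 4× images. Relative viability is treated-well nuclei count divided by vehicle-well nuclei count, and values are medians of duplicate plates.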

COR-L23 = system: COR-L23
Outline: as §1

NCI-H2023 = system: NCI-H2023
Outline: as §1

PC-14 = system: PC-14
Outline: as §1

LC-2-ad = system: LC-2-ad
Outline: as §1

HCC-44 = system: HCC-44
Outline: as §1

NCI-H838 = system: NCI-H838
Outline: as §1

ABC-1 = system: ABC-1
Outline: as §1

HARA = system: HARA
Outline: as §1

NCI-H2085 = system: NCI-H2085
Outline: as §1

HOP-62 = system: HOP-62
Outline: as §1

HCC-15 = system: HCC-15
Outline: as §1

UMC-11 = system: UMC-11
Outline: as §1

NCI-H2126 = system: NCI-H2126
Outline: as §1

SW 1573 = system: SW 1573
Outline: as §1

NCI-H1651 = system: NCI-H1651
Outline: as §1

EPLC-272H = system: EPLC-272H
Outline: as §1

NCI-H2347 = system: NCI-H2347
Outline: as §1

NCI-H1915 = system: NCI-H1915
Outline: as §1

LU99A = system: LU99A
Outline: as §1

NCI-H650 = system: NCI-H650
Outline: as §1

NCI-H1993 = system: NCI-H1993
Outline: as §1

NCI-H358 = system: NCI-H358
Outline: as §1

Molecule `O=c1cc(N2CCOCC2)oc2c(-c3cccc4c3sc3ccccc34)cccc12` + C[C@]1(O)C[C@@H](c2nc(-c3ccc4ccc(-c5ccccc5)nc4c3)c3c(N)nccn32)C1 [Linsitinib] (partner 1 µM) has a relative viability (NCI-H1355; first compound 0.01 µM) of 0.772, a relative viability (NCI-H1355; first compound 0.03162 µM) of 0.895 and a relative viability (NCI-H1355; first compound 0.3162 µM) of 0.819. The relative viability (NCI-H1355; first compound 1 µM) was 0.849, the relative viability (COR-L23; first compound 0.01 µM) was 0.891 and the relative viability (COR-L23; first compound 0.03162 µM) was 0.877. The relative viability (COR-L23; first compound 0.1 µM) was 1, the relative viability (COR-L23; first compound 0.3162 µM) was 0.923 and the relative viability (COR-L23; first compound 1 µM) was 0.882. The relative viability (NCI-H2023; first compound 0.01 µM) was 0.735, the relative viability (NCI-H2023; first compound 0.03162 µM) was 0.66 and the relative viability (NCI-H2023; first compound 0.1 µM) was 0.603. It also gave a relative viability (NCI-H2023; first compound 0.3162 µM) of 0.564, a relative viability (NCI-H2023; first compound 1 µM) of 0.557 and a relative viability (PC-14; first compound 0.01 µM) of 0.998. It also gave a relative viability (PC-14; first compound 0.03162 µM) of 0.934, a relative viability (PC-14; first compound 0.1 µM) of 0.952 and a relative viability (PC-14; first compound 0.3162 µM) of 0.952. The relative viability (PC-14; first compound 1 µM) was 0.848, the relative viability (LC-2-ad; first compound 0.01 µM) was 0.975 and the relative viability (LC-2-ad; first compound 0.1 µM) was 0.801. It also gave a relative viability (LC-2-ad; first compound 0.3162 µM) of 0.714, a relative viability (LC-2-ad; first compound 1 µM) of 0.781 and a relative viability (HCC-44; first compound 0.01 µM) of 0.748. For the same molecule, the relative viability (HCC-44; first compound 0.03162 µM) was 0.661, the relative viability (HCC-44; first compound 0.1 µM) was 0.655 and the relative viability (HCC-44; first compound 0.3162 µM) was 0.684. For the same molecule, the relative viability (HCC-44; first compound 1 µM) was 0.584, the relative viability (NCI-H838; first compound 0.01 µM) was 1.05 and the relative viability (NCI-H838; first compound 0.03162 µM) was 1.03. For the same molecule, the relative viability (NCI-H838; first compound 0.1 µM) was 0.951, the relative viability (NCI-H838; first compound 0.3162 µM) was 0.931 and the relative viability (NCI-H838; first compound 1 µM) was 0.916. It also gave a relative viability (ABC-1; first compound 0.01 µM) of 0.89, a relative viability (ABC-1; first compound 0.03162 µM) of 0.717 and a relative viability (ABC-1; first compound 0.1 µM) of 0.745. The relative viability (ABC-1; first compound 0.3162 µM) was 0.618, the relative viability (ABC-1; first compound 1 µM) was 0.586 and the relative viability (HARA; first compound 0.01 µM) was 0.996. It also gave a relative viability (HARA; first compound 0.03162 µM) of 0.933, a relative viability (HARA; first compound 0.1 µM) of 1.03 and a relative viability (HARA; first compound 0.3162 µM) of 1.17. For the same molecule, the relative viability (HARA; first compound 1 µM) was 0.926, the relative viability (NCI-H2085; first compound 0.01 µM) was 0.983 and the relative viability (NCI-H2085; first compound 0.03162 µM) was 0.914. For the same molecule, the relative viability (NCI-H2085; first compound 0.1 µM) was 0.933, the relative viability (NCI-H2085; first compound 0.3162 µM) was 0.889 and the relative viability (NCI-H2085; first compound 1 µM) was 0.821. The relative viability (HOP-62; first compound 0.01 µM) was 0.991, the relative viability (HOP-62; first compound 0.03162 µM) was 1.12 and the relative viability (HOP-62; first compound 0.1 µM) was 0.909. For the same molecule, the relative viability (HOP-62; first compound 0.3162 µM) was 0.933, the relative viability (HOP-62; first compound 1 µM) was 0.989 and the relative viability (HCC-15; first compound 0.01 µM) was 0.786. For the same molecule, the relative viability (HCC-15; first compound 0.03162 µM) was 0.869, the relative viability (HCC-15; first compound 0.1 µM) was 0.936 and the relative viability (HCC-15; first compound 0.3162 µM) was 0.902. It also gave a relative viability (HCC-15; first compound 1 µM) of 0.847, a relative viability (UMC-11; first compound 0.01 µM) of 1.07 and a relative viability (UMC-11; first compound 0.03162 µM) of 1.03. It also gave a relative viability (UMC-11; first compound 0.1 µM) of 1.01, a relative viability (UMC-11; first compound 0.3162 µM) of 1.02 and a relative viability (UMC-11; first compound 1 µM) of 1.06. For the same molecule, the relative viability (NCI-H2126; first compound 0.01 µM) was 0.698, the relative viability (NCI-H2126; first compound 0.03162 µM) was 0.664 and the relative viability (NCI-H2126; first compound 0.1 µM) was 0.691. For the same molecule, the relative viability (NCI-H2126; first compound 0.3162 µM) was 0.702, the relative viability (NCI-H2126; first compound 1 µM) was 0.725 and the relative viability (SW 1573; first compound 0.01 µM) was 0.955. It also gave a relative viability (SW 1573; first compound 0.03162 µM) of 0.832, a relative viability (SW 1573; first compound 0.1 µM) of 0.746 and a relative viability (SW 1573; first compound 0.3162 µM) of 0.813. It also gave a relative viability (SW 1573; first compound 1 µM) of 0.653, a relative viability (NCI-H1651; first compound 0.01 µM) of 1.1 and a relative viability (NCI-H1651; first compound 0.03162 µM) of 1.07. It also gave a relative viability (NCI-H1651; first compound 0.1 µM) of 1.02, a relative viability (NCI-H1651; first compound 0.3162 µM) of 1.05 and a relative viability (NCI-H1651; first compound 1 µM) of 0.912. For the same molecule, the relative viability (EPLC-272H; first compound 0.01 µM) was 0.987, the relative viability (EPLC-272H; first compound 0.03162 µM) was 1.17 and the relative viability (EPLC-272H; first compound 0.3162 µM) was 1.31. It also gave a relative viability (EPLC-272H; first compound 1 µM) of 1.1, a relative viability (NCI-H2347; first compound 0.01 µM) of 1.02 and a relative viability (NCI-H2347; first compound 0.03162 µM) of 0.943. It also gave a relative viability (NCI-H2347; first compound 0.1 µM) of 0.962, a relative viability (NCI-H2347; first compound 0.3162 µM) of 0.926 and a relative viability (NCI-H2347; first compound 1 µM) of 0.945. The relative viability (NCI-H1915; first compound 0.01 µM) was 1.04, the relative viability (NCI-H1915; first compound 0.03162 µM) was 1.15 and the relative viability (NCI-H1915; first compound 0.1 µM) was 0.636. It also gave a relative viability (NCI-H1915; first compound 0.3162 µM) of 1.1, a relative viability (NCI-H1915; first compound 1 µM) of 1.08 and a relative viability (LU99A; first compound 0.01 µM) of 0.524. The relative viability (LU99A; first compound 0.03162 µM) was 0.628, the relative viability (LU99A; first compound 0.1 µM) was 0.589 and the relative viability (LU99A; first compound 0.3162 µM) was 0.518. It also gave a relative viability (LU99A; first compound 1 µM) of 0.627, a relative viability (NCI-H650; first compound 0.01 µM) of 0.794 and a relative viability (NCI-H650; first compound 0.03162 µM) of 1.03. It also gave a relative viability (NCI-H650; first compound 0.3162 µM) of 1.14, a relative viability (NCI-H650; first compound 1 µM) of 0.679 and a relative viability (NCI-H1993; first compound 0.01 µM) of 0.73. The relative viability (NCI-H1993; first compound 0.03162 µM) was 0.785, the relative viability (NCI-H1993; first compound 0.1 µM) was 0.687 and the relative viability (NCI-H1993; first compound 0.3162 µM) was 0.79. It also gave a relative viability (NCI-H1993; first compound 1 µM) of 0.531, a relative viability (NCI-H358; first compound 0.01 µM) of 0.631 and a relative viability (NCI-H358; first compound 0.03162 µM) of 0.781. For the same molecule, the relative viability (NCI-H358; first compound 0.1 µM) was 0.731, the relative viability (NCI-H358; first compound 0.3162 µM) was 0.812 and the relative viability (NCI-H358; first compound 1 µM) was 0.736.
